The subject of the assay is methicillin resistant Staphylococcus aureus. The experiment in a line: Example XXI: wound infected with methicillin resistant Staphylococcus aureus. Format: in vivo, horse. The source says: A 4 year old quarter horse mare had received a 4 inch cut on the chest from an encounter with a corral fence and had developed an infection. […] At that time, a specimen was taken from the wound and sent to a diagnostic lab for identification. Treatment of the wound was then started with silver sulfa diazole. When the results were returned from the diagnostic lab, the pathogen was identified as methicillin resistant Staphylococcus aureus. At that time, salve as described in Example 4 was applied to the wound, and then reapplied twice daily.

Two molecules from patent US11771649B1, “Pharmaceutical lotion or salve utilizing mixed metal hydroxide antimicrobial charged particles” (Magalum LLC, priority 2021, dated 2023) can be followed below.

Regarding `NC(=O)N/N=C/c1ccc([N+](=O)[O-])o1` [nitrofurazone ointment, nitrofurazone], the state of wound result (prior treatment, after two days) is listed as “no positive result”.

For the molecule penicillin, the state of wound result (10,000 units per pound body weight injection, after 72 hours) is given as “no improvement was again noted”.
